Measurements from PubChem BioAssay (NCI).
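96-well plates; 48 h exposure; 5 concentrations. Endpoints by linear interpolation between flanking doses. Not reached: highest tested concentration assigned. TGI: concentration producing complete growth inhibition.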

Assays:
Test in all cases: NCI-60 cell line screen, 48 h
[1] = system: TK-10 renal
[2] = system: SN12C renal
[3] = system: MCF7 breast
[4] = system: OVCAR-3 ovarian
[5] = system: HT29 colon
[6] = system: M14 melanoma
[7] = system: IGROV1 ovarian
[8] = system: NCI/ADR-RES ovarian
[9] = system: U251 CNS
[10] = system: SK-MEL-2 melanoma

Structure (SMILES) | TGI [1] [µM] | TGI [2] [µM] | TGI [3] [µM] | TGI [4] [µM] | TGI [5] [µM] | TGI [6] [µM] | TGI [7] [µM] | TGI [8] [µM] | TGI [9] [µM] | TGI [10] [µM]
CC(=O)N1c2ccccc2C(C)C1c1[nH]c2ccccc2c1C (stereo not given) | 76.1 | 33.9 | > 100 | 46.1 | 57.1 | 42.5 | > 100 | > 100 | 51.5 | 40.2
Oc1ccc(O)c(CNc2ccccc2)c1 | 39.1 | 29.2 | 57.7 | 19.3 | > 100 | 33.7 | 33.4 | > 100 | 44.2 | 82.2
CC(C)(C)[C@H]1CCC2(OCCO2)[C@](O)(CCCO)C1 | > 100 | > 100 | > 100 | > 100 | > 100 | > 100 | > 100 | > 100 | > 100 | > 100
COC(=O)c1cc(C(=CCC[C@H]2CC[C@@]3(C)C(CCC4C3CC[C@@]3(C)C4CC[C@@H]3C(C)CCCC(C)C)C2)c2cc(Cl)c(OC(=O)c3ccccc3)c(C(=O)OC)c2)cc(Cl)c1OC(=O)c1ccccc1 (stereo not given in full) | > 10 | > 10 | > 10 | > 10 | > 10 | > 10 | > 10 | > 10 | > 10 | > 10
N=c1c2c(=S)n(-c3ccccc3)c(=S)n(-c3ccccc3)c2nc(SCCN2CCOCC2)n1-c1ccccc1 | 3.1 | 3.71 | > 100 | 3.3 | 4.03 | 3.8 | 3.36 | 14.6 | 3.93 | 8.17
CSc1nc2c(=O)n(-c3ccccc3)c(=S)n(-c3ccccc3)c2s1 | > 100 | > 100 | > 100 | > 100 | > 100 | > 100 | > 100 | > 100 | > 100 | > 100
C[C@]1(O)O[C@@H]2OCC[C@@H]2C2=C1C(=O)c1ccccc1C2=O | 35.5 | 51.1 | 23.3 | 22.3 | > 100 | 24.1 | 27.2 | 45.8 | 29.8 | 32
COC(=O)[C@H](Cc1ccccc1)NP(=O)(O)OCC1C=CC(n2cc(C)c(=O)[nH]c2=O)O1 (stereo not given in full) | > 100 | > 100 | > 100 | > 100 | > 100 | > 100 | > 100 | > 100 | > 100 | > 100
